Literature values as cited in patent publication US9637731B2, “Heavy metal stabilization and methane inhibition during induced or naturally occurring reducing conditions in contaminated media” (Innovative Environmental Technologies, Inc., priority 2013, dated 2017).

Columns and labels:
[1] = test system: F420-dependent NADP oxidoreductase enzyme; conditions: 3D protein model
[2] = test system: pure methanogenic bacteria

Structure (SMILES)	affinity for the model protein compared to the natural ligand F420 [1]	methane formation (Methanobrevibacter)	concentration that completely inhibited growth (Methanobrevibacter; per ml of culture medium)	IC50 (Methanobrevibacter; per ml of culture medium, read-out: concentration resulting in 50% inhibition of growth)	populations of the non-methanogens (non-methanogens)	growth and activity of pure methanogenic bacteria [2]	effect on cellulolytic bacteria (cellulolytic bacteria)
CC[C@H](C)C(=O)O[C@H]1CCC=C2C=C[C@H](C)[C@H](CC[C@@H]3C[C@@H](O)CC(=O)O3)[C@H]21 [compactin]	more affinity	–	–	–	–	–	–
CC[C@H](C)C(=O)O[C@H]1C[C@@H](C)C=C2C=C[C@H](C)[C@H](CC[C@@H]3C[C@@H](O)CC(=O)O3)[C@H]21 [lovastatin, Lovastatin]	more affinity	significantly inhibited	10 nmol/mL	4 µM	not affected	significantly reduced	without any negative effect
